{"source": "patent US7311392B2", "about": "“Inkjet recording ink and method of inkjet recording” (Fujifilm Corporation, priority 2002, dated 2007)", "origin": "cited, not measured here", "conditions": "20° C.; water-miscible organic solvent of the ink"}
{"compound": "OCC(O)CO", "note": "[Glycerin]", "values": [{"measurement": "Vapor Pressure [Pa]", "value": "0.3 (20° C.) Pa"}]}
{"compound": "COCC(C)O", "note": "(centres unmarked) [Compound 1-Methoxy-2-propanol, 1-Methoxy-2-propanol]", "values": [{"measurement": "Vapor Pressure [Pa]", "value": "1013 (20° C.) Pa"}]}
{"compound": "OCCOCCO", "note": "[Diethylene glycol]", "values": [{"measurement": "Vapor Pressure [Pa]", "value": "<1.3 (20° C.) Pa"}]}
{"compound": "CC(C)O", "note": "[Compound 2-Propanol, 2-Propanol]", "values": [{"measurement": "Vapor Pressure [Pa]", "value": "4320 (20° C.) Pa"}]}
{"compound": "CCCCOCCOCCOCCO", "note": "[Triethylene glycol monobutyl ether]", "values": [{"measurement": "Vapor Pressure [Pa]", "value": "<1.3 (20° C.) Pa"}]}
